According to US20230159509A1 (Amathus Therapeutics, Inc., priority 2020, published 2023):

Molecular target: T1, TRAP1 enzyme (Homo sapiens, UniProt Q12931)
T1 construct: 150 nM Trap1 enzyme was incubated with various concentrations of the test compound
T1 sequence (Q12931 60-704): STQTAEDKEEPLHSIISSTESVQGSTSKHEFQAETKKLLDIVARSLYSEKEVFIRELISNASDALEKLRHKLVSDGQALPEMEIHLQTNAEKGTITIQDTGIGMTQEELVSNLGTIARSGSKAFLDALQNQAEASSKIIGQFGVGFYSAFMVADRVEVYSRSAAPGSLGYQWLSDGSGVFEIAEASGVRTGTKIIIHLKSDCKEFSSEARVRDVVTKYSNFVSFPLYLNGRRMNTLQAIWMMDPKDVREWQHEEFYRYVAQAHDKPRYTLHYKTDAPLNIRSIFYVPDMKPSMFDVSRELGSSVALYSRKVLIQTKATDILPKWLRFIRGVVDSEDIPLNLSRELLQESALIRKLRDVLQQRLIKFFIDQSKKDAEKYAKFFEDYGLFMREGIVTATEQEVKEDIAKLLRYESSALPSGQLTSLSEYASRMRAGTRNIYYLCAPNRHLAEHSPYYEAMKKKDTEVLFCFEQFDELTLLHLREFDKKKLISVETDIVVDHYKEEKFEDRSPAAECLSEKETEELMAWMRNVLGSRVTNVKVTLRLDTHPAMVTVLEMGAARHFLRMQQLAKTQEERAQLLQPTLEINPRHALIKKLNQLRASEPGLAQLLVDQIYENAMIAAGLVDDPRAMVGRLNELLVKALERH
Assay: ADP Glo assay of TRAP1 ATPase activity
Assay type: biochemical
Settings: for EC50: concentration for half maximal activation, read-out: ADP GLO DRC: GeoMean EC50; for Emax: maximal percent activation, read-out: ADP GLO DRC: Mean Emax; for activation at 50 µM: 1 h, compound concentration 50 μM, read-out: ADP-Glo Percent Activation at 50 μM
Summary of the method: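 Compound (0.79–100 μM) was preincubated 30 min at 37° C with 150 nM TRAP1 in 25 mM Pipes pH 7.5, 40 mM KCl, 0.05 mM MgCl2. Reaction started with 20 μM ATP, 60 min at 37° C. ADP measured by luminescence against a standard curve; activation fitted sigmoidally for EC50 and Emax.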

| SMILES | EC50 | Emax | activation at 50 µM |
| --- | --- | --- | --- |
| COc1ncc(NC(=O)c2csnc2C)cc1S(=O)(=O)Nc1c(C)cccc1C [compound 2703] |  |  | 120 to 150% |
| COc1ncc(NC(=O)c2ccnc3c2OCCC3)cc1S(=O)(=O)Nc1c(C)cccc1C [compound 1364, N-(5-(N-(2,6-dimethylphenyl)sulfamoyl)-6-methoxypyridin-3-yl)-3,4-dihydro-2H-pyrano[3,2-b]pyridine-8-carboxamide] | 20 to 100 µM | > 300% |  |
| COc1ncc(NC(=O)c2ncc(-c3ccccc3)o2)cc1S(=O)(=O)Nc1cccc2cncc(C)c12 [compound 1513] | < 10 µM | 160 to 199% |  |
| COc1ncc(NC(=O)c2ccc3c(c2)NC(=O)C3)cc1S(=O)(=O)Nc1c(C)cccc1C [compound 2727] |  |  | 181 to 352% |
| COc1ncc(NC(=O)c2ncc(-c3ccccc3)o2)cc1S(=O)(=O)Nc1ccc2c(n1)CCC2 [compound 1908] | 20 to 100 µM | 119 to 159% |  |
| COc1ncc(NC(=O)c2cc[nH]c3nccc2-3)cc1S(=O)(=O)Nc1c(C)cccc1C [compound 2735] |  |  | 181 to 352% |
| COc1ncc(NC(=O)c2csc(-c3ccccc3)n2)cc1S(=O)(=O)Nc1c(C(F)(F)F)cccc1C(F)(F)F [compound 1970, N-(5-(N-(2,6-bis(trifluoromethyl)phenyl)sulfamoyl)-6-methoxypyridin-3-yl)-2-phenylthiazole-4-carboxamide] | 10 to 20 µM | 200 to 300% |  |
| COc1cnccc1C(=O)Nc1cnc(OC)c(S(=O)(=O)Nc2c(C)cccc2C)c1 [compound 2546] |  |  | 120 to 150% |
| COc1ncc(NC(=O)c2ccc(N3CCN(C)CC3)c(Cl)c2)cc1S(=O)(=O)Nc1c(C)cccc1C [compound 2764] |  |  | 181 to 352% |
| COc1ncc(NC(=O)c2cncc(N3CCCCC3)c2)cc1S(=O)(=O)Nc1c(C)cccc1C [compound 2622] |  |  | 120 to 150% |
| COc1ncc(NC(=O)c2ccc(CNC(C)=O)cc2)cc1S(=O)(=O)Nc1c(C)cccc1C [compound 2682] |  |  | 151 to 180% |
| COc1ncc(NC(=O)c2csc(-c3cccc(OCC4COC(C)(C)O4)n3)n2)cc1S(=O)(=O)Nc1c(C)cccc1C (stereo not drawn) [compound 2454] | < 10 µM | 119 to 159% |  |
| COc1ncc(NC(=O)c2cc(C)no2)cc1S(=O)(=O)Nc1c(C)cccc1C [compound 2754] |  |  | 120 to 150% |
| COc1ncc(NC(=O)c2cccc3c2CCC3)cc1S(=O)(=O)Nc1c(C)cccc1C [compound 2621] |  |  | 151 to 180% |
| COc1ncc(NC(=O)c2n[nH]c3c2CCC3)cc1S(=O)(=O)Nc1c(C)cccc1C [compound 2701] |  |  | 181 to 352% |
| COc1cccc(OC)c1NS(=O)(=O)c1cc(NC(=O)c2csc(-c3ccccc3)n2)cnc1OC [compound 1386, N-(5-(N-(2,6-dimethoxyphenyl)sulfamoyl)-6-methoxypyridin-3-yl)-2-phenylthiazole-4-carboxamide] | < 10 µM | 200 to 300% |  |
| COc1ncc(NC(=O)c2coc(-c3ccccc3)n2)cc1S(=O)(=O)Nc1c(Cl)cccc1C(F)(F)F [compound 1962, N-(5-(N-(2-chloro-6-(trifluoromethyl)phenyl)sulfamoyl)-6-methoxypyridin-3-yl)-2-phenyloxazole-4-carboxamide] | 20 to 100 µM | 160 to 199% |  |
| COc1ncc(NC(=O)c2cnn3c2OCCC3)cc1S(=O)(=O)Nc1c(C)cccc1C [compound 2577] |  |  | 120 to 150% |
| COc1ncc(NC(=O)c2ncc(-c3ccccc3)o2)cc1S(=O)(=O)Nc1c(F)cccc1C(F)(F)F [compound 1377, N-(5-(N-(2-fluoro-6-(trifluoromethyl)phenyl)sulfamoyl)-6-methoxypyridin-3-yl)-5-phenyloxazole-2-carboxamide] | 20 to 100 µM | 160 to 199% |  |
| COc1ncc(NC(=O)c2csc(-c3ccccc3)n2)cc1S(=O)(=O)Nc1cccn2nc(C)nc12 [compound 1768] | 20 to 100 µM | 200 to 300% |  |
| COc1ncc(NC(=O)c2csc(-c3ccccc3)n2)cc1S(=O)(=O)Nc1c(C)cccc1O [compound 1953, N-(5-(N-(2-hydroxy-6-methylphenyl)sulfamoyl)-6-methoxypyridin-3-yl)-2-phenylthiazole-4-carboxamide] | 20 to 100 µM | 119 to 159% |  |
| COc1ncc(NC(=O)c2cc(C(F)(F)F)n[nH]2)cc1S(=O)(=O)Nc1c(C)cccc1C [compound 2695] |  |  | 151 to 180% |
| COc1ncc(NC(=O)c2csc(-c3ccc(F)cc3)n2)cc1S(=O)(=O)Nc1c(C)cccc1C [compound 1413, N-(5-(N-(2,6-dimethylphenyl)sulfamoyl)-6-methoxypyridin-3-yl)-2-(4-fluorophenyl)thiazole-4-carboxamide] | < 10 µM | 119 to 159% |  |
| COc1ncc(NC(=O)c2csc(-c3ccccc3)n2)cc1S(=O)(=O)Nc1cc(C)n(C(C)C)n1 [compound 1754] | 10 to 20 µM | 160 to 199% |  |
| CCc1cc(C(=O)Nc2cnc(OC)c(S(=O)(=O)Nc3c(C)cccc3C)c2)nn1C [compound 2786] |  |  | 181 to 352% |
| CCCC(C)c1cc(NS(=O)(=O)c2cc(NC(=O)c3ncc(-c4ccccc4)o3)cnc2OC)on1 (stereo not drawn) [compound 1648] | 20 to 100 µM | 119 to 159% |  |
| COc1ncc(NC(=O)c2cnn(C3CCOCC3)c2)cc1S(=O)(=O)Nc1c(C)cccc1C [compound 2587] |  |  | 120 to 150% |
| COc1ncc(NC(=O)c2coc(-c3ccccc3)n2)cc1S(=O)(=O)Nc1ccc(F)cc1C [compound 1950, N-(5-(N-(4-fluoro-2-methylphenyl)sulfamoyl)-6-methoxypyridin-3-yl)-2-phenyloxazole-4-carboxamide] | < 10 µM | 119 to 159% |  |
| COc1ncc(NC(=O)c2ccc(N3CCN(C)CC3)cc2Cl)cc1S(=O)(=O)Nc1c(C)cccc1C [compound 2774] |  |  | 181 to 352% |
| COc1ncc(NC(=O)c2cc(C)n(C)n2)cc1S(=O)(=O)Nc1c(C)cccc1C [compound 2564] |  |  | 120 to 150% |

The remaining lines, values ahead:

| EC50 | Emax | activation at 50 µM | SMILES |
| --- | --- | --- | --- |
| 10 to 20 µM | 119 to 159% |  | COc1ncc(NC(=O)c2csc(-c3ccccc3)n2)cc1S(=O)(=O)Nc1c(C)cc(Cl)cc1C [compound 1388, N-(5-(N-(4-chloro-2,6-dimethylphenyl)sulfamoyl)-6-methoxypyridin-3-yl)-2-phenylthiazole-4-carboxamide] |
|  |  | 120 to 150% | COc1ncc(NC(=O)c2ccn3ncnc3c2)cc1S(=O)(=O)Nc1c(C)cccc1C [compound 2567] |
|  |  | 120 to 150% | COc1ncc(NC(=O)c2ccn[nH]2)cc1S(=O)(=O)Nc1c(C)cccc1C [compound 2709] |
|  |  | 181 to 352% | COc1ncc(NC(=O)c2cnn(C3CCCCC3)c2)cc1S(=O)(=O)Nc1c(C)cccc1C [compound 2700] |
| < 10 µM | 119 to 159% |  | [2H]c1c([2H])c([2H])c(C([2H])([2H])[2H])c(NS(=O)(=O)c2cc(NC(=O)c3csc(-c4ccccc4)n3)cnc2OC)c1[2H] [compound 2492] |
| < 10 µM | 119 to 159% |  | [2H]c1c([2H])c([2H])c(-c2nc(C(=O)Nc3cnc(OC)c(S(=O)(=O)Nc4c(C)cccc4C)c3)cs2)c([2H])c1[2H] [compound 2500] |
| 20 to 100 µM | 200 to 300% |  | COc1ncc(NC(=O)c2ncc(-c3ccccc3)o2)cc1S(=O)(=O)Nc1cc(-c2ccccc2C)nn1C [compound 1567] |
|  |  | 151 to 180% | COc1ncc(NC(=O)c2cccc3c2CCCC3)cc1S(=O)(=O)Nc1c(C)cccc1C [compound 2574] |
|  |  | 151 to 180% | COc1ncc(NC(=O)c2[nH]ncc2Cl)cc1S(=O)(=O)Nc1c(C)cccc1C [compound 2779] |
| 10 to 20 µM | 200 to 300% |  | COc1ncc(NC(=O)c2csc(-c3ccccc3)n2)cc1S(=O)(=O)Nc1cc(F)c(C)cc1C#N [compound 2155] |
| 20 to 100 µM | 160 to 199% |  | [2H]c1c([2H])c([2H])c(C([2H])([2H])[2H])c(NS(=O)(=O)c2cc(NC(=S)c3coc(-c4ccccc4)n3)cnc2OC)c1[2H] [compound 2493] |
| 10 to 20 µM | 160 to 199% |  | Cc1cnc(NC(=O)c2ncc(-c3ccccc3)o2)cc1S(=O)(=O)Nc1ccc(Cl)cc1 [compound 1390, N-(4-(N-(4-chlorophenyl)sulfamoyl)-5-methylpyridin-2-yl)-5-phenyloxazole-2-carboxamide] |
| 20 to 100 µM | 200 to 300% |  | COc1ncc(NC(=O)c2csc(-c3ccccc3)n2)cc1S(=O)(=O)Nc1c(C#N)cccc1C(F)(F)F [compound 2068] |
|  |  | 181 to 352% | COc1ncc(NC(=O)c2ccc(NS(C)(=O)=O)cc2)cc1S(=O)(=O)Nc1c(C)cccc1C [compound 2761] |
| 20 to 100 µM | 160 to 199% |  | COc1ncc(NC(=O)c2csc(-c3ccccc3)n2)cc1S(=O)(=O)Nc1ccnc(C(F)(F)F)c1 [compound 1895] |
|  |  | 151 to 180% | COc1ncc(NC(=O)c2ccc(NC(C)=O)cc2C)cc1S(=O)(=O)Nc1c(C)cccc1C [compound 2670] |
